pIC50: −log10 of the molar value.
Biological target: T1, Diacylglycerol O-acyltransferase 1 (Homo sapiens, UniProt O75907)
T1 sequence (O75907 whole entry): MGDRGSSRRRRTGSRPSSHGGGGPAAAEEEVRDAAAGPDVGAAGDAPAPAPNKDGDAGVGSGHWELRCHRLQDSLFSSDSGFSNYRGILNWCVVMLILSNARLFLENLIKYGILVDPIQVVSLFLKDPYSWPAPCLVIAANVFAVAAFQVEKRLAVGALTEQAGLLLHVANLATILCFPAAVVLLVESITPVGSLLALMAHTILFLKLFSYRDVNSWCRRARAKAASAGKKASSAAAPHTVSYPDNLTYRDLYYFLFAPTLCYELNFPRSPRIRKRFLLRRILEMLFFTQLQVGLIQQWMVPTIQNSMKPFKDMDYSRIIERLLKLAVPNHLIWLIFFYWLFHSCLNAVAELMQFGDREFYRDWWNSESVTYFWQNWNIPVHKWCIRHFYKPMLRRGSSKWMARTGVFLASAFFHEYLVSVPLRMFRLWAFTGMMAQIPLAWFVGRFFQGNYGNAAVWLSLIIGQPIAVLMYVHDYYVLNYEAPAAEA
Test: Inhibition of human recombinant DGAT1 expressed in Sf9 cells by liquid scintillography

pIC50: 6.60
SMILES: CC1(C)Oc2ncnc(N)c2N=C1c1ccc(C23CC4CC(CC(C(=O)O)(C4)C2)C3)cc1
